Source: PMC7331992, “Targeting the oral plaque microbiome with immobilized anti-biofilm peptides at tooth-restoration interfaces” (PLoS ONE, 2020)
Square brackets hold non-standard residues; d marks the D form. Ends that are not written are not given here. Peptide text beside a SMILES is read from it.

Experiments:
#311 plaque biofilm [1] = test: Live/dead viability assay of plaque biofilms on peptide-coated HA discs; format: cell-based, plaque bacteria (human subject)
Method: Hydroxyapatite (HA) discs (9.65 mm diameter by 1.52 mm thickness; Clarkson Chromatography Products, Williamsport, PA, USA) were sterilized by autoclaving to be used as plaque biofilm substrates. Both sides of each disc were etched by 32% phosphoric acid gel (Scotchbond™ Universal Etchant, 3M, St. Paul, MN, USA) for 15 s followed by 10 s water-rinse and 10 s air-dry. The discs were coated, incubated with a thin layer of peptide solution at 37 °C for 1 min, by 1 mg/ml of either D-GL13K or 1018 or DJK2 followed by 60 s air-dry. The control discs were etched, but were not coated with peptides. All samples were subject to ultrasonication in water bath for 15 min to remove any unattached peptides. X-ray Photoelectron Spectroscopy (XPS; SSX-100, Surface Science Laboratories; Al Kα X-ray, 1 mm spot-size, 35° take-off angle) was used to detect the atomic composition of the coated surfaces. […]
Working solution of fluorescent stains (L7012, LIVE/DEAD BacLight Bacterial Viability Kit, ThermoFisher Scientific, Waltham, MA, USA) was prepared by adding 3 μl of SYTO® 9 (live cell stain) and 3 μl of Propidium iodide (PI, dead cell stain) to 1 ml of sterilized Milli-Q® ultrapure water. […] The regrown biofilms were re-assessed using the same Live/Dead assay.

#311 plaque sample = conditions: cultures of highly adherent #311 plaque sample; several batches; n = 3; Fig 2C; cited from earlier work
Method: (§1) MICs of D-GL13K against cultures of all 10 plaque biofilm samples were in the range 1–4 μg/ml (Fig 2A). […] Potency of the rest of AAMPs candidates was tested against cultures of the highly adherent #311 sample. […] The controls, scrambled amino acid versions of D- ...

#311 plaque biofilm [2] = conditions: Fig 2B, cited from earlier work
Method: as §1, with “However, biofilms show increased resistance to antimicrobial agents than suspension cultures.” for “The controls, scrambled amino acid versions of D- ...”

[3] = tested on: plaque biofilm microbial community; test: 16S rRNA gene sequencing of plaque biofilm community on AAMPs-coated HA discs; format: cell-based, plaque bacteria (human subject)
Method: PMA treatment was conducted for selective detection of viable bacteria. Prior to DNA extraction, the collected 1ml of bacterial cells was sub-divided into 0.5ml with PMA and the other 0.5ml without PMA treatment for each sample for fulfilling a pairs-matched statistical design (S1 Fig in S1 File). PMA was added to the assigned samples for a final concentration of 50 μM. The samples were incubated in the dark for 10 minutes on a shaker at room temperature. The samples were exposed to a PMA-Lite LED photolysis device light (Biotium, Fremont, CA, USA) to cross-link PMA to DNA for 15 minutes. Cells were pelleted by centrifuging at 5000x g for 10 minutes in preparation for genomic DNA extraction.
Genomic DNA was extracted from all samples; i.e., PMA and non-PMA treated bacteria. The protocol amended from Epicentre MasterPure™ DNA Purification Kit and Epicentre MasterPure™ Gram Positive DNA Purification Kit was followed (http://homings.forsyth.org/DNA%20Isolation%20Protocol.pdf, last access 03/31/2020).
The extracted DNA was submitted to the University of Minnesota Genomics Center for dual-indexed 16S rRNA gene amplicon sequencing using the V3-V4 region on the Illumina MiSeq platform 300PE.
Primers where removed with FilterandTrim, paired reads were merged with mergePairs, Bimeras where removed in with removeBimeraDenovo, and Silva version 132 was used for taxonomy identification. Sequences with a length < 251 and > 255 were removed as well as sequences with a total read count across all samples equal to 1. Further analysis of the ASV table was performed in R with the vegan, reshape2, ggplot2, grid, gridExtra, plyr, dplyr packages. The alpha diversity indices of Shannon, Simpson, Inverse Simpson (InvSympson) were calculated at 97% identity. Beta diversity analysis was performed by principal coordinates analysis (PCoA) based on Bray-Curtis distances at the Operational Taxonomic Unit (OTU) level. […]

[4] = tested on: plaque biofilm along dentin-composite interface; test: Multiphoton live/dead bioimaging of plaque biofilm along dentin-composite interfacial gap; format: cell-based, plaque bacteria (human subject); bovine dentin; conditions: D-GL13K-coated dentin
Excerpt: Roots of bovine teeth were used to prepare restored dentin-composite discs (Fig 1). After the crowns and apical thirds of each tooth were cut off, the root canals were enlarged to 2 mm in diameter, using 1.9-mm diameter fiber post drills (RelyX™ Fiber Post, 3M, St. Paul, MN, USA). The outer surface of the roots was trimmed down to 5 mm in diameter using a lathe to remove cementum and external layers of dentin. The obtained dentin tubes (5 mm in outer diameter and 2 mm in inner diameter) were water rinsed and stored in 0.5 chloramine T solution at 4 °C until the restorative procedures were performed. […]
Multiphoton images were acquired in a Multiphoton upright microscope equipped with an A1R laser scan head (Nikon FN1, Tokyo, Japan). […] Multiphoton excitation fluorescence was collected in the epi direction in the green (470–550) and orange-red (570–640) channels. […] Images were compiled and analyzed with NIS Elements software (Version 4.11.0, Nikon, Tokyo, Japan).
Quantification of red and green cells was done by standard co-localization analysis using Fiji image processing package. The percentage of red cells, which is usually associated to dead cells was calculated as: deadcells%=(totalvolumeofredcells/totalvolumeofcells)x100

[5] = tested on: supragingival dental plaque samples from 10 high caries risk subjects; format: cell-based, plaque bacteria (human subjects); conditions: 24 h
Excerpt: After a written informed consent was obtained from all participants, supragingival dental plaque samples from 10 high caries risk subjects were collected from either the occlusal or buccal margin of existing restorations at the University of Minnesota (Institutional Review Board #1403M48865). Each subject was examined for a formal caries risk assessment (CAMBRA) which classifies the caries risk status into 3 categories (low, moderate, high) considering a wide-range of biological predisposing factors and the protective factors, 8 factors each, in addition to the comprehensive clinical examination. All subjects had experienced active carious lesions and were still at high risk for future caries; otherwise, they were in good general health and had not taken antibiotics within 3 months of plaque sampling.
All dental plaque samples were collected using a sterile sickle scaler, and each sample was immediately deposited into a vial containing 1 ml pre-reduced anaerobic transfer medium (Anaerobe Systems, Morgan Hill, CA, USA). […] After 24 h of peptide treatment, absorbance at 600 nm was measured using a microtiter plate reader (Bio-Tek Instruments, Winooski, VT, USA). Plaque sample #311 was challenging in the planktonic state and, additionally, it formed the highest adherent biofilm using the Crystal Violet assay as measured by Dr. Robert S. Jones lab (data not shown). […]

Compound | live/dead assay, effect on bacteria (#311 plaque biofilm [1]; D-GL13K-coated HA discs, 48 h biofilm growth) | antibiofilm activity of challenged coatings (#311 plaque biofilm [1]; coating challenged by 45 min ultrasonication or 45 min 30% acetic acid (pH 2.4), biofilms regrown 5 and 15 days) | MIC (#311 plaque sample) [µg/mL] | inhibition of #311 plaque biofilm (#311 plaque biofilm [2]; 25 μg/ml D-GL13K, 6-day-old biofilm) | suppression of biofilm biovolume compared to controls (#311 plaque biofilm [2]; highly adherent plaque biofilm) [%] | bacterial community richness (Shannon index) compared to controls ([3]; 48-h biofilm on coated HA discs, genus level) | abundance of less abundant taxa Actinomyces and Gemella compared to controls ([3]; ANCOM, coated HA discs) | number and relative abundance of Streptococcus and Veillonella combined versus controls ([3]; Shannon, Simpson, InvSimpson indices, coated HA discs) | antibiofilm potency on 18-day-old interfacial plaque biofilm ([4]; 18-day-old biofilm, 3D rendering) | Percentage of dead cells ([4]; interfacial 9-day-old biofilm, average ± SD, n=6, control 31.5%± 8%, p = 0.018) | MIC [5] [µg/mL]
CC[C@@H](C)[C@@H](NC(=O)[C@@H](CCCCN)NC(=O)CN)C(=O)N[C@@H](C(=O)N[C@H](CCCCN)C(=O)N[C@H](CC(C)C)C(=O)N[C@H](CCCCN)C(=O)N[C@H](C)C(=O)N[C@H](CO)C(=O)N[C@H](CC(C)C)C(=O)N[C@H](CCCCN)C(=O)N[C@H](CC(C)C)C(=O)N[C@H](CC(C)C)C(N)=O)[C@H](C)CC [D-GL13K] (H-G[dK][dI][dI][dK][dL][dK][dA][dS][dL][dK][dL][dL]-NH2; N-terminus and C-terminus assumed) | uniform and marked loss of the integrity of bacterial membranes | sustained antibiofilm activity | 1 to 2 | around 4 fold | > 70 | significantly reduced | significant reduction | significant reduction | maintained their antibiofilm potency | 60% ± 10% | 1 to 4
L-GL13K: antimicrobial amphipathic peptide GL13K, L-amino acids (GKIIKLKASLKLL; not fully specified (C-terminus)) | – | – | 8 | – | – | – | – | – | – | – | –
